Measured values from patent US10898460B1, “Leishmania inhibitors” (University of South Florida, priority 2018, dated 2021).

Tested on: Leishmania donovani
Assay: Bioassay against Leishmania donovani
Format: cell-based
Excerpt: Marine invertebrates from Antarctica have been investigated for their potential natural product chemistry. Often sessile, these organisms must develop chemical protective mechanisms to survive and defend themselves against predators. The biodiversity of these organisms is of particular interest due to the extremely low temperatures and the circumpolar current around the Antarctic continent serving as an ecological isolating shield. The chemodiversity that emanates from these organisms can be a significant source of chemistry to be further developed into new drugs. The chemical investigation of an undescribed Gersemia sp. Antarctic coral has led to the isolation of two different kinds of bioactive compounds. After lyophilization of the organism, two different extractions were performed: the first one used a methylene chloride: methanol (1:1) solvent mixture, and the second one used methylene chloride only as solvent in a Soxhlet extraction. […] One and two-dimensional nuclear magnetic resonance, mass spectrometry, X-ray crystallography, and circular dichroism were the methods performed to elucidate and confirm the structures. Furthermore, biological testing against Leishmania sp. and ESKAPE pathogens, Zika virus, Clostridium difficile, and HeLa cancer cells were performed.
Table 1 details the bioactivity of two Alcyopterosins and ACDL-21.

- IC50: 3.1 µM
SMILES: Cc1cc2c(c3c1[C@H](CO[N+](=O)[O-])OC3=O)CC(C)(C)C2 [Alcyopterosin E (2), alcyopterosin E]
